Laboratory results reported in PubChem BioAssay (NCI).
“And” between values parts separate entries of the source, which are not always exact repeats. Equal values may be shown once.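 Step 1: Grow cells in 96-well plates. Step 2: Expose to compound for 48 hours at 5 concentrations. Step 3: Interpolate endpoints linearly; if unreached, use highest concentration. The concentration for 50% growth inhibition is given as GI50. TGI: total growth inhibition.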 Where a SMILES comes first, the peptide text is derived from it. [ ]: non-standard residue; d: D form. The star is where a group is joined. NMeF = CN[CH](Cc1ccccc1)C(=O)O; NMeV = CN[CH](C(=O)O)C(C)C; ΔPro = O=C(O)[CH]1C=CCN1; Boc = CC(C)(C)OC(=O)*; OBn = c1ccc(CO*)cc1

Assays:
Assay in all cases: NCI anticancer screen, dose series, 48 h
SNB-75 CNS = system: SNB-75 CNS
COLO 205 colon = system: COLO 205 colon
RPMI-8226 leukemia = system: RPMI-8226 leukemia
HT29 colon = system: HT29 colon
NCI/ADR-RES ovarian = system: NCI/ADR-RES ovarian
MALME-3M melanoma = system: MALME-3M melanoma
NCI-H226 lung = system: NCI-H226 lung
OVCAR-3 ovarian = system: OVCAR-3 ovarian
SK-MEL-2 melanoma = system: SK-MEL-2 melanoma
SNB-78 CNS = system: SNB-78 CNS
XF 498 CNS = system: XF 498 CNS
HOP-18 NSCLC = system: HOP-18 NSCLC
DLD-1 colon = system: DLD-1 colon
LXFL 529 NSCLC = system: LXFL 529 NSCLC
M19-MEL melanoma = system: M19-MEL melanoma

| SMILES | TGI (SNB-75 CNS) | TGI (COLO 205 colon) | TGI (RPMI-8226 leukemia) | TGI (HT29 colon) | TGI (NCI/ADR-RES ovarian) | TGI (MALME-3M melanoma) | TGI (NCI-H226 lung) | TGI (OVCAR-3 ovarian) | TGI (SK-MEL-2 melanoma) | TGI (SNB-78 CNS) | TGI (XF 498 CNS) | TGI (HOP-18 NSCLC) | TGI (DLD-1 colon) | TGI (LXFL 529 NSCLC) | TGI (M19-MEL melanoma) | GI50 (XF 498 CNS) | GI50 (RPMI-8226 leukemia) | GI50 (LXFL 529 NSCLC) | GI50 (OVCAR-3 ovarian) | GI50 (M19-MEL melanoma) |
| --- | --- | --- | --- | --- | --- | --- | --- | --- | --- | --- | --- | --- | --- | --- | --- | --- | --- | --- | --- | --- |
| O[C@@]1(C#Cc2ccc3c(c2)OCO3)CCC[C@H]1NCc1ccccc1 | 89.8 µM | 37.4 µM | 56 µM | 44.9 µM | 40.6 µM | 29.6 µM | 51.2 µM | 47.4 µM | 31.9 µM |  |  |  |  |  |  |  |  |  |  |  |
| C=C1c2nc3ccccc3n2C=C(c2ccccc2)N1c1ccc(Cl)cc1 | 19 µM | > 100 µM | > 85 µM | > 100 µM | > 77.7 µM | 51.2 µM | > 87.1 µM | 59.5 µM | > 100 µM |  |  |  |  |  |  |  |  |  |  |  |
| C=C(COCO)C(C)=O | 30.5 µM | 20.8 µM | 5.64 µM | 35 µM | 51.5 µM | 23.5 µM | > 100 µM | 26.6 µM | 40.5 µM |  |  |  |  |  |  |  |  |  |  |  |
| COc1ccc2c(c1)CCc1c-2[nH]c2cc3c(cc2c1=O)OCO3 | > 100 µM | > 100 µM | > 100 µM | > 100 µM |  | > 100 µM |  |  | > 100 µM | > 100 µM | > 100 µM | > 100 µM | > 100 µM | > 100 µM | > 100 µM |  |  |  |  |  |
| COc1ccccc1-n1nnc2c(N)nc(N)nc21 | > 100 µM | > 100 µM | > 100 µM | > 100 µM | > 100 µM | > 100 µM | > 100 µM | > 100 µM | > 100 µM |  |  |  |  |  |  |  |  |  |  |  |
| O=C(Sc1c(-c2ccccc2)c(=O)n(-c2ccccc2)c(=S)n1-c1ccccc1)c1ccccc1 | 88.2 µM | > 100 µM | > 100 µM | > 100 µM | > 100 µM | > 100 µM | > 100 µM | > 100 µM | > 100 µM |  |  |  |  |  |  |  |  |  |  |  |
| O=C1C=C(c2ccccc2)OC1C1Sc2ccccc2NC1=O (stereo not given) | 50.3 µM | 18.5 µM | 12.5 µM | > 100 µM | > 80.9 µM | > 100 µM | > 83.3 µM | 18.9 µM | > 41.1 µM |  |  |  |  |  |  |  |  |  |  |  |
| O=C(O)C1C=CCN1C(=O)C1C=CCN1C(=O)C1C=CCN1 (stereo not given) (H-[ΔPro]-[ΔPro]-[ΔPro]-OH; configuration not given here) | > 100 µM | > 100 µM | > 100 µM | > 100 µM | > 100 µM | > 100 µM | > 100 µM | > 100 µM | > 100 µM |  |  |  |  |  |  |  |  |  |  |  |
| CCCC(=O)OCC1OC(n2cc(F)c(=O)[nH]c2=O)CC1O (stereo not given) | 9.55 µM | > 10 µM | > 10 µM | > 10 µM | > 10 µM | > 10 µM | > 10 µM | > 10 µM | > 10 µM |  |  |  |  |  |  |  |  |  |  |  |
| CN1CCC2(c3ccccc3)CC(=O)/C(=C/c3ccc(Cl)c(Cl)c3)C1C2 (stereo not given) | 11.2 µM | 4.2 µM | 5.13 µM | 4.12 µM | 11 µM | 24.4 µM | 4.69 µM | 9.59 µM | 9.87 µM |  |  |  |  |  |  |  |  |  |  |  |
| CCO/C(O)=C(/C(=N)N1CCOCC1)C(=O)NC(C)C | > 100 µM | > 100 µM | > 100 µM | > 100 µM | > 100 µM | > 100 µM | > 100 µM | > 100 µM | > 100 µM |  |  |  |  |  |  |  |  |  |  |  |
| C=C(C)[C@H]1CC[C@@]23O[C@@H]2[C@@H](C[C@@]2(C)CC(=O)[C@H](CC(=O)C1)O2)OC(=O)[C@@]12CC[C@H](C(=C)C)CC(=O)C[C@H]4O[C@](C)(CC4=O)C[C@@H](OC3=O)[C@@H]1O2 | > 100 µM | > 100 µM | > 100 µM | > 100 µM | > 100 µM | > 100 µM | > 100 µM | > 100 µM | > 100 µM |  |  |  |  |  |  |  |  |  |  |  |
| O=S1SC(=S)C2C=CC=NC21 (stereo not given) | 34.9 µM | 40.3 µM | > 100 µM | 30.8 µM | 67.5 µM | 36.3 µM | 56.4 µM | 56.2 µM | 36.6 µM |  |  |  |  |  |  |  |  |  |  |  |
| CC(=O)NS(=O)(=O)c1ccc(NCc2cccc3c(=O)c4ccc(Cl)cc4oc23)cc1 | > 100 µM | > 100 µM | > 100 µM | > 100 µM | > 80.7 µM | > 93.5 µM | > 100 µM | > 93.3 µM | > 93.6 µM |  |  |  |  |  |  |  |  |  |  |  |
| CNC(=O)C(C)Oc1ccc(OCC2CCCCC2)cc1 (stereo not given) | > 100 µM |  |  | > 100 µM |  | > 100 µM | > 100 µM | > 100 µM | > 100 µM | > 100 µM |  | > 100 µM | > 100 µM | > 100 µM | > 100 µM |  |  |  |  |  |
| CC(=O)Nc1cc(Cl)cc(Cl)c1O | > 100 µM | > 100 µM | > 100 µM | > 100 µM | > 100 µM | > 100 µM | > 100 µM | > 100 µM | > 100 µM |  |  |  |  |  |  |  |  |  |  |  |
| O=c1[nH]c2c(c(=O)[nH]1)SC(c1ccccc1)C2 (stereo not given) | > 100 µM | > 100 µM | > 100 µM | > 100 µM | > 100 µM | > 100 µM | > 100 µM | > 100 µM | > 100 µM |  |  |  |  |  |  |  |  |  |  |  |
| CC(C)C(NC(=O)OC(C)(C)C)C(=O)N(C)C(Cc1ccccc1)C(=O)N(C)C(C(=O)OCc1ccccc1)C(C)C (stereo not drawn) (Boc-Val-[NMeF]-[NMeV]-OBn; configuration not given here) |  | > 100 µM | > 100 µM | 32.3 µM and > 100 µM |  | > 100 µM | > 100 µM | > 100 µM |  |  | 9.63 µM and 74.8 µM |  |  | > 100 µM | > 100 µM | 3.54 µM and 28.6 µM | 10.8 µM and 25.3 µM | 14.1 µM and 33.2 µM | 35.5 µM and > 100 µM | 87.4 µM and 42.2 µM |
| Cn1nnc2c(C(N)=S)ncn2c1=O | > 100 µM | > 100 µM | > 100 µM | > 100 µM | > 100 µM | > 100 µM | > 100 µM | > 100 µM | > 100 µM |  |  |  |  |  |  |  |  |  |  |  |
| CCOC(=O)[C@@H]1[C@@H](c2ccccc2)N(C)O[C@@]1(c1ccccc1)C(F)(F)F | > 100 µM | > 100 µM | > 100 µM | > 100 µM | > 100 µM | > 100 µM | > 100 µM | > 100 µM | > 100 µM |  |  |  |  |  |  |  |  |  |  |  |
